The numbers were not newly measured in US20210401707A1, “AZOXYSTROBIN IN A SULFATE FREE PERSONAL CARE COMPOSITION” (The Procter & Gamble Company, priority 2020, published 2021), which cites them from elsewhere.

`CO/C=C(/C(=O)OC)c1ccccc1Oc1cc(Oc2ccccc2C#N)ncn1` [Azoxystrobin]: the solubility in water result is reported as “low solubility in water”.
